{"source": "paper PMC12419465", "about": "“Photoresponsive molecular tweezers modulate Taspase 1 activity” (RSC Chemical Biology, 2025)", "target": "T1, Taspase 1/Importin α interaction (Homo sapiens, UniProt Q9H6P5, D233A/T234A)", "T1 construct": "with full-length Taspase 1 in the recombinant pull-down assay", "T1 sequence (Q9H6P5 1-420 D233A/T234A)": "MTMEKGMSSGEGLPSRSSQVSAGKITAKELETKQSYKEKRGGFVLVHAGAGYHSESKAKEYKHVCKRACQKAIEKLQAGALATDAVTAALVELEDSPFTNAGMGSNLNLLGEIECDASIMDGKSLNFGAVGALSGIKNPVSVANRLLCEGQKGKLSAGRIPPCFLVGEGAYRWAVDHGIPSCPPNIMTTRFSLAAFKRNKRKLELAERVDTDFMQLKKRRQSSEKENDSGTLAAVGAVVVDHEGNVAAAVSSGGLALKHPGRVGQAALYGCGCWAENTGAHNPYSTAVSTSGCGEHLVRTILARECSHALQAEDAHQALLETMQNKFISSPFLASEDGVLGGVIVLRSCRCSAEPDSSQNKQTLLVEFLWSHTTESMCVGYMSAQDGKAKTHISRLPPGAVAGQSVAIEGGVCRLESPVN", "experiment": "Recombinant pull-down assay, GST-Importin α bait and Taspase 1-His prey", "format": "biochemical", "conditions": "percentage of the PPI of Importin α with full-length Taspase 1, ligand conc. 25 µM, n = 3", "experimental": "Pull-down assay: recombinant pull-down assays were performed as described.[9,10] For details on the assay workflow, see SI (Fig. S6).\nPull-down assays were conducted with 100 μM of TWAAP3 in either its Z or E isomer form or left untreated (un.), omitting the ligand. […] To achieve the respective Z or E isomer, TWAAP3 was irradiated with UV light (365 nm) or green light (520 nm) prior to incubation. All samples contained 3% DMSO during ligand incubation. Negative controls included samples lacking either GST-Importin α (-Iα) or Taspase 1 (-T). *, p < 0.05, t-test. Composed with https://BioRender.com.\nFigure S6. Controls for pull-down assays with TWAAP constructs. A. Schematic assay\nrepresentation: GST -Importin α was immobilized on a glutathione -coated Sepharose matrix in a spin\ncolumn. After GST binding, Taspase 1-His pre-incubated with tweezer constructs was added. […]"}
{"smiles": "Cc1nn(-c2ccc(-c3cn(CCOP(=O)(O)Oc4c5c(c(OP(=O)(O)O)c6c4C4CC6c6cc7c(cc64)C4CC7c6ccccc64)C4CC5c5cc6c(cc54)C4CC6c5ccccc54)nn3)cc2)c(C)c1N=Nc1ccc(-c2ccc(-c3cn(CCOP(=O)(O)Oc4c5c(c(OP(=O)(O)O)c6c4C4CC6c6cc7c(cc64)C4CC7c6ccccc64)C4CC5c5cc6c(cc54)C4CC6c5ccccc54)nn3)cc2)cc1", "note": "[TWAAP3]", "values": [{"measurement": "PPI TW (pull-down, full-length protein)", "setting": "E isomer", "value": 90, "unit": "%"}, {"measurement": "PPI TW (pull-down, full-length protein)", "setting": "Z isomer", "value": 60, "unit": "%"}]}
